For two compounds, IC50 and EC50 results are on record in patent publication US20020028807A1, “Non-nucleoside reverse transcriptase inhibitors” (priority 2000, published 2002).

Structures are written as SMILES.

For test [1], the target named is T1, HIV-1 RT P23L (Human immunodeficiency virus type 1 group M subtype B, UniProt P03366, P835L).
T1 construct: an HIV RT clone pKRT2 containing only the RT p66 gene regulated by the lac operon/trc promoter; made in house; host or cells: E. coli JM109, vector pKK233-2
Description: Reverse transcriptase (RT) assay, P23L mutant. The class given is biochemical. The source says:
(§1) Among the enzymes for which Human Immunodeficiency Virus (HIV-1) encodes is a reverse transcriptase (1), so-named because it transcribes a DNA copy from an RNA template. This activity can be quantitatively measured in a cell-free enzyme assay and is based upon the observation that reverse transcriptase is able to use a synthetic template poly r(C) primed with a biotinylated oligo d(G) to transcribe a radio-labelled DNA strand utilising 3H-dGTP as a substrate. The assay described below utilises the wild-type enzyme (which is the predominant form of the enzyme observed in patients infected with HIV-1) and can also be used with mutant RT enzymes (for example, Y181C, prepared by site-directed mutagenesis in which the tyrosine residue at codon 181 has been replaced by a cysteine residue) in analogous assay conditions. This assay allows compounds to be evaluated for their effectiveness at inhibiting the mutant enzymes.
(§2) Some HIV-1 IIIB clone BH10 RT mutants were provided by Dr. C.-K. Shih (Boehringer Ingelheim Pharmaceutials Inc., U.S.A.) in the vector pKK233-2 (Pharmacia). Briefly an HIV RT clone pKRT2 containing only the RT p66 gene regulated by the lac operon/trc promoter was obtained from Dr. W. Summers (Yale University) (2). A variety of specific amino acid substitutions were introduced into the wild-type RT gene by site-directed mutagenesis. RT clones were subcloned into the pKK233-2 bacterial expression vector. Clones provided included wild-type, Val106Ala, Tyr181Cys, Tyr188Cys, Tyr188Leu, Gly190Ala and Pro236Leu. Others were made in-house by site-directed mutagenesis of the pKK233-2 RT clones including Lys103Asn, Lys103Asn/Tyr181Cys, Lys103Asn/Leu100Ile, Lys103Asn/Pro225His, and Lys103Asn/Val108Ile.
Purification of recombinant reverse transcriptase was performed using a combination of methods previously described (3). A single colony from a fresh plate of transformed JM109 cells was used to initiate growth of a pre-culture grown o/n at 37° C. Two liters of growth medium were inoculated with this pre-culture. At OD600˜1.5 (5-6 h at 37° C.), RT gene expression was induced with IPTG (1 mM final), and the fermentation was continued for a few more hours at 37° C. After centrifugation, supernatants were discarded while cell pellets were pooled and stored at −80° C. until purification. Cells were thawed at 4° C. overnight and suspended in lysis buffer (MES 50 mM pH 6, EDTA 1 mM, 10% v/v glyerol, 0.02% w/v OBG, 0.02% w/v sodium azide). Lysozyme was added and the mixture was incubated on ice for 40 minutes. After homogenization using a bounce in presence of lysozyme and sonication, the cells were centrifuged for 30 minutes. Supernatant (S1) was saved and stored at 4° C. […]

Test [2] concerns the target T2, HIV-1 RT Y188L (Human immunodeficiency virus type 1 group M subtype B, UniProt P03366, Y787L).
T2 construct: an HIV RT clone pKRT2 containing only the RT p66 gene regulated by the lac operon/trc promoter; made in house; host or cells: E. coli JM109, vector pKK233-2
Description: Reverse transcriptase (RT) assay, Y188L mutant. The class given is biochemical.
From the text: as §1, §2
(§3) Purification of recombinant reverse transcriptase was performed using a combination of methods previously described (3). A single colony from a fresh plate of transformed JM109 cells was used to initiate growth of a pre-culture grown o/n at 37° C. Two liters of growth medium were inoculated with this pre-culture. At OD600˜1.5 (5-6 h at 37° C.), RT gene expression was induced with IPTG (1 mM final), and the fermentation was continued for a few more hours at 37° C. After centrifugation, supernatants were discarded while cell pellets were pooled and stored at −80° C. until purification. Cells were thawed at 4° C. overnight and suspended in lysis buffer (MES 50 mM pH 6, EDTA 1 mM, 10% v/v glyerol, 0.02% w/v OBG, 0.02% w/v sodium azide). Lysozyme was added and the mixture was incubated on ice for 40 minutes. After homogenization using a bounce in presence of lysozyme and sonication, the cells were centrifuged for 30 minutes. Supernatant (S1) was saved and stored at 4° C. The centrifuged pellet was resuspended in extraction buffer (MES 50 mM pH 6, KPO4 50 mM pH 6, KCl 100 mM, 10% v/v glycerol, 0.02% w/v OBG, 0.02% w/v sodium axide) and stirred for 30 minutes at 4° C. This second mixture was centrifuged again and the supernatant (S2) was saved. The above procedure was repeated 2 more times saving supernatants S3 and S4 and one last extraction was performed overnight (S5). Polymin P (0.005% final) was added to the combined supernatants to remove nucleic acids. This solution was stirred for 75 minutes at 4° C. and centrifuged for 1 h. The supernatant (SS1) was precipitated on ice with 20% w/v ammonium sulfate and stirred for 1 h at 4° C. The mixture was then centrifuged and the resulting supernatant (SS2) was precipitated with additional 40% w/v ammonium sulfate (60% total), stirred for 1 h and centrifuged again. The final pellet (P1) was stored overnight at 4° C. before undergoing purification the following day. All steps of the purification were performed at 4° C. unless otherwise stated.
(§4) Pellet (P1) was resuspended into MES 50 mM pH 6, KPO4 10 mM pH 6, KCl 100 mM, 10% v/v glycerol, 0.02% w/v OBG, 0.02% w/v sodium azide. The suspension was dialysis against the same buffer overnight using 12-14 kD MWCO dialysis tubing. […]

Test [3] addresses T3, HIV-1 RT V106A (Human immunodeficiency virus type 1 group M subtype B, UniProt P03366, V705A).
T3 construct: an HIV RT clone pKRT2 containing only the RT p66 gene regulated by the lac operon/trc promoter; made in house; host or cells: E. coli JM109, vector pKK233-2
Description: Reverse transcriptase (RT) assay, V106A mutant. It is filed as biochemical.
From the text: as §1, §2, §3, §4

Test [4] deals with T4, HIV-1 RT K103N (Human immunodeficiency virus type 1 group M subtype B, UniProt P03366, K702N).
T4 construct: an HIV RT clone pKRT2 containing only the RT p66 gene regulated by the lac operon/trc promoter; made in house; host or cells: E. coli JM109, vector pKK233-2
Description: Reverse transcriptase (RT) assay, K103N mutant. The class given is biochemical.
From the text: as §1, §2, §3, §4

Test [5] has as its target T5, HIV-1 RT K103N/L100I (Human immunodeficiency virus type 1 group M subtype B, UniProt P03366, K702N/L699I).
T5 construct: an HIV RT clone pKRT2 containing only the RT p66 gene regulated by the lac operon/trc promoter; made in house; host or cells: E. coli JM109, vector pKK233-2
Description: Reverse transcriptase (RT) assay, K103N/L100I mutant. The class given is biochemical.
From the text: as §1, §2, §3, §4

Test [6] has as its target T6, HIV-1 RT Y188C (Human immunodeficiency virus type 1 group M subtype B, UniProt P03366, Y787C).
T6 construct: an HIV RT clone pKRT2 containing only the RT p66 gene regulated by the lac operon/trc promoter; made in house; host or cells: E. coli JM109, vector pKK233-2
Description: Reverse transcriptase (RT) assay, Y188C mutant. It is filed as biochemical.
From the text: as §1, §2, §3, §4

For test [7], the target named is T7, HIV-1 RT Y181C (Human immunodeficiency virus type 1 group M subtype B, UniProt P03366, Y780C).
T7 construct: an HIV RT clone pKRT2 containing only the RT p66 gene regulated by the lac operon/trc promoter; made in house; host or cells: E. coli JM109, vector pKK233-2
Description: Reverse transcriptase (RT) assay, Y181C mutant. It is filed as biochemical.
From the text: as §1, §2, §3, §4

For test [8], the system named is HIV coding for wild-type reverse transcriptase (WT RT). Description: ELISA (p24) assay of HIV replication in C8166 cell culture, wild-type RT virus. It is filed as cell-based, HIV-1. The conditions noted are these: Human immunodeficiency virus 1, C8166, 72 h, read-out: EC50 WT RT. As to the method: (§5) Compounds of the invention were tested for their ability to inhibit HIV replication in cell culture in a 96-well plate assay. Complete RPMI 1640, consisting of RPMI 1640+10% fetal bovine serum, 10 μg/ml gentamycin and 10 μM β-mercaptoethanol was used for dilution of the compound as well as cell growth medium. The T lymphocyte cell line C8166 was infected at a multiplicity of infection of 0.001 with viruses coding for wild-type and mutant reverse transcriptase. Cells were then incubated for three days in the presence of serial dilutions of the compounds of the invention. The supernatant was pooled from eight replica wells and the concentration of extracellular p24 was determined using a commercially available HIV-1 p24 antigen assay kit (Beckman-Coulter®). The level of inhibition (% inhibition) was calculated with the following equation: [formula]

Test [9] deals with T8, HIV-1 RT K103N/Y181C (Human immunodeficiency virus type 1 group M subtype B, UniProt P03366, K702N/Y780C).
T8 construct: an HIV RT clone pKRT2 containing only the RT p66 gene regulated by the lac operon/trc promoter; made in house; host or cells: E. coli JM109, vector pKK233-2
Description: Reverse transcriptase (RT) assay, K103N/Y181C mutant. The class given is biochemical.
From the text: as §1, §2, §3, §4

The target in test [10] is T9, HIV-1 RT K103N/P225H (Human immunodeficiency virus type 1 group M subtype B, UniProt P03366, K702N/P824H).
T9 construct: an HIV RT clone pKRT2 containing only the RT p66 gene regulated by the lac operon/trc promoter; made in house; host or cells: E. coli JM109, vector pKK233-2
Description: Reverse transcriptase (RT) assay, K103N/P225H mutant. The class given is biochemical.
From the text: as §1, §2, §3, §4

Test [11] deals with T10, HIV-1 RT G190A (Human immunodeficiency virus type 1 group M subtype B, UniProt P03366, G789A).
T10 construct: an HIV RT clone pKRT2 containing only the RT p66 gene regulated by the lac operon/trc promoter; made in house; host or cells: E. coli JM109, vector pKK233-2
Description: Reverse transcriptase (RT) assay, G190A mutant. The class given is biochemical.
From the text: as §1, §2, §3, §4

The target of test [12] is T11, HIV-1 RT K103N/V108I (Human immunodeficiency virus type 1 group M subtype B, UniProt P03366, K702N/V707I).
T11 construct: an HIV RT clone pKRT2 containing only the RT p66 gene regulated by the lac operon/trc promoter; made in house; host or cells: E. coli JM109, vector pKK233-2
Description: Reverse transcriptase (RT) assay, K103N/V108I mutant. The class given is biochemical.
From the text: as §1, §2, §3, §4

Test [13] concerns the target T12, HIV-1 RT wild-type (WT) (Human immunodeficiency virus type 1 group M subtype B, UniProt P03366).
T12 construct: an HIV RT clone pKRT2 containing only the RT p66 gene regulated by the lac operon/trc promoter; made in house; host or cells: E. coli JM109, vector pKK233-2
Description: Reverse transcriptase (RT) assay, wild-type enzyme. The class given is biochemical.
From the text: as §1, §2, §3, §4

The test system of test [14] is HIV coding for mutant reverse transcriptase K103N/Y181C. Description: ELISA (p24) assay of HIV replication in C8166 cell culture, K103N/Y181C virus. The class given is cell-based, HIV-1. To be noted: Human immunodeficiency virus 1, C8166, 72 h, read-out: EC50 K103N/Y181C. As to the method:
as §5

Test [15] deals with HIV coding for mutant reverse transcriptase Y188L. Description: ELISA (p24) assay of HIV replication in C8166 cell culture, Y188L virus. The conditions noted are these: Human immunodeficiency virus 1, C8166, 72 h, read-out: EC50 Y188L. The class given is cell-based, HIV-1. As to the method: as §5
For orientation: In an ELISA, binding on a coated surface is turned into a signal by an enzyme label.

The subject of test [16] is HIV coding for mutant reverse transcriptase Y181C. Description: ELISA (p24) assay of HIV replication in C8166 cell culture, Y181C virus. The class given is cell-based, HIV-1. To be noted: Human immunodeficiency virus 1, C8166, 72 h, read-out: EC50 Y181C. The method, then: as §5
Test [17] has as its system HIV coding for mutant reverse transcriptase V106A. Description: ELISA (p24) assay of HIV replication in C8166 cell culture, V106A virus. It is filed as cell-based, HIV-1. The conditions noted are these: Human immunodeficiency virus 1, C8166, 72 h, read-out: EC50 V106A. The method, then: as §5
For test [18], the system named is HIV coding for mutant reverse transcriptase K103N. Description: ELISA (p24) assay of HIV replication in C8166 cell culture, K103N virus. The class given is cell-based, HIV-1. The conditions noted are these: Human immunodeficiency virus 1, C8166, 72 h, read-out: EC50 K103N. The method, then: as §5

In the case of `CCN1c2ncc(CCOc3ccnc4ccccc34)cc2C(=O)N(C)c2ccc(Cl)nc21` [compound 2, 2-Chloro-5,11-dihydro-11-ethyl-5-methyl-8-{2-(4-quinolinyloxy)ethyl}-6H-dipyrido[3,2-b:2′,3′-e][1,4]diazepin-6-one], the IC50 (usually the concentration at which inhibition is half-maximal) in [1] stood at 50.5 nM; in [2], 258 nM; in test [3] it was 148 nM; in test [4] it was 28.5 nM; in [5], 46 nM; in [6], 7.1 nM. In addition, the IC50 in [7] was determined as 25 nM; in test [9], 24.5 nM; in test [10], 27 nM; in test [11], 14.5 nM; in test [12], 31 nM; in [13], 5.5 nM. The EC50 in [8] worked out at 2.2 nM.
As for `CCN1c2ncc(CCOc3cc[n+]([O-])c4ccccc34)cc2C(=O)N(C)c2ccc(C)nc21` [compound 28, 2,5-Dimethyl-5,11-dihydro-11-ethyl-8-{2-{(1-oxido-4-quinolinyl)oxy}ethyl}-6H-dipyrido[3,2-b:2′,3′-e][1,4]diazepin-6-one], the EC50 is 7.5 nM in [14]; 70 nM in [15]; 1.3 nM in [8]; 2.6 nM in test [16]; 42 nM in test [17]; 2.3 nM in [18]. Besides, the IC50 in test [2] was 1190 nM; in [3], 605 nM; in test [5], 28 nM; in [6], 9 nM; in test [9], 141 nM; in test [10], 25 nM. Moreover, the IC50 in [11] was 25 nM; in test [12], 35 nM; in [13] it was 19 nM.
